# Laboratory results taken from a melting point compilation (Tetko et al.; mined from patent text by program, amines drawn as free bases though some values may be those of a salt).
row,SMILES,melting point
1,CCOC(=O)c1c(N2CCN(C(=O)c3cccs3)CC2)c2cnccc2n(CC(=O)c2ccccc2)c1=O,157 °C
2,CCC(Oc1ccc(C(C)(C)CC(C)(C)C)cc1)C(=O)Nc1ccc(Cl)c(Nc2cc(=O)n(-c3c(Cl)cc(Cl)cc3Cl)[nH]2)c1 (centres undefined),163 to 165 °C
3,CN=C(NS(=O)(=O)N1CCOCC1)C1=NN(c2ccc(Cl)cc2Cl)C(c2ccccc2)C1 (centres undefined),161 to 165 °C
4,O=[N+]([O-])c1ccc(CF)cc1[N+](=O)[O-],37.5 to 38.5 °C
5,COc1ccc(-n2c(C)ccc2-c2ccc(S(N)(=O)=O)cc2)cc1,196 to 197 °C
6,O=C(CCl)CCCCc1ccc(CCCCC(=O)CCl)cc1,86 to 87 °C
7,CC(C(=O)c1c(O)c2cccnc2n(-c2cccc(C(F)(F)F)c2)c1=O)c1ccccc1 (centres undefined),200 to 201 °C
8,O=C(NC1CCCCC1)ON1C(=O)CCC1=O,158 to 160 °C
9,OCc1cccnc1N1CCN(c2nc3cc(C(F)(F)F)cc(Cl)c3[nH]2)CC1,252 °C
10,CCCCc1nc(N)c(C(=O)OCC)[nH]1,103 to 106 °C
11,CCCCCOc1ccc2c(c1)C=C(CNC(=O)CCC)CO2,90 °C
12,CC(C)N1CC(COc2cccc3c(=O)[nH]ccc23)OC1=O (centres undefined),215 to 216 °C
13,O=C1CCCc2nc3ccccc3c(NCc3ccc(C(F)(F)F)cc3)c21,174 to 176 °C
14,CCCCc1ccc(N2CCN(C(=O)Nc3nc(C)c(C)nc3OC)CC2)cc1,121 to 123 °C
15,Cc1cc2c(cc1OCC(=O)O)C(C)(C)CC1(CC(C)(C)c3cc(OCC(=O)O)c(C)cc3O1)O2,> 260 °C
16,CC(=O)N1CCc2c([nH]c3ccc(Cl)cc23)C1CCCN1CCN(C)CC1 (centres undefined),59 to 61 °C
17,CCC(C)(Oc1ccc(CC(=O)Nc2cc(C)cc(C)c2)cc1)C(=O)O (centres undefined),131 to 133 °C
18,Cc1ccc(CN(O)C(N)=O)o1,105 °C
19,COc1cc2c3ccc(OC)c(OC)c3n(C(=O)c3ccc(C(C)(C)C)cc3)c2cc1OC,129 to 131 °C
20,CCOC(=O)c1c(CSc2ccccc2)n(C)c2cc(Br)c(O)c(CN(C)C)c12,127 to 128 °C

row,SMILES,melting point
1,CC(C)(C)OC(=O)CN(Cc1ccccc1)S(=O)(=O)c1ccc2c(Cl)cnc(Cl)c2c1,134 to 136 °C
2,COC(=O)c1ccc(=O)n(-c2ccccc2)c1,100 to 105 °C
3,Cc1cc(C)c2cccc(OCc3c(Cl)ccc(S(=O)(=O)N4CCC[C@H]4C(=O)NCc4ccc(C=NN)cn4)c3Cl)c2n1,128 to 130 °C
4,O=C1CCCc2c1ccc(O)c2Br,183 to 186 °C
5,Nc1cc2c(cn1)[nH]c1ccccc12,288 to 290 °C
6,Cc1cccc(C)c1NC(=O)CCCSc1cc(C(C)(C)C)c(O)c(C(C)(C)C)c1,140 °C
7,CC(C)(C)OOC(C)(CCC(=O)N(N)C(=O)OCCOCCOC(=O)N(N)C(=O)CCC(C)(OOC(C)(C)C)OOC(C)(C)C)OOC(C)(C)C,45 to 50 °C
8,COc1cc([N+](=O)[O-])c(C(=O)Cc2ccccc2)cc1O,142 to 143 °C
9,N#Cc1c(N2CCN(C(=O)c3cccs3)CC2)c2cscc2n(-c2cccnc2)c1=O,282 °C
10,CCCCOc1c(CNC(=O)OC(C)(C)C)n(CC(C)(C)C)c(=O)c2ccc(/C=C/C(N)=O)cc12,121 to 122 °C
11,N[C@H]1CC[C@@H](N2CCNC2=O)CC1,121 to 123 °C
12,COC(=O)/C=C/n1cnc2c(C)cc(C)cc2c1=O,139 to 141 °C
13,CCC(=O)Nc1nc2ccc(Cl)cc2nc1N,300 to 302 °C
14,CCOC(=O)CN1C(=O)[C@@H](N)[C@H](c2ccccc2)Sc2ccccc21,176 to 178 °C
15,O=C(O)CC1Cc2ccc(OCc3ccccc3)cc2C1 (centres undefined),127 to 129 °C
16,COC(=O)c1ccc(C2=NOC(c3cc(Cl)cc(Cl)c3)(C(F)(F)F)C2)cc1 (centres undefined),94 to 96 °C
17,Nc1ccc2c(=O)n3c(nc2c1)C(=Cc1ccccc1)CC3,268 to 270 °C
18,CCOC(=O)CC(=O)c1cn(C(c2ccccc2)(c2ccccc2)c2ccccc2)cn1,136 to 139 °C
19,OC(c1cc(F)ccc1F)c1ccncc1Cl (centres undefined),169 to 170 °C
